From PubChem BioAssay (NCI)
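Briefly, cells in 96-well plates were exposed to five compound concentrations for 48 h, and endpoints were estimated by linear interpolation. GI50 marks 50% less growth. TGI: total growth inhibition.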

What was measured:
Assay in all cases: DTP human tumour cell line panel, 48 h
MALME-3M melanoma = test system: MALME-3M melanoma
UACC-62 melanoma = test system: UACC-62 melanoma
SK-MEL-5 melanoma = test system: SK-MEL-5 melanoma
ACHN renal = test system: ACHN renal
UO-31 renal = test system: UO-31 renal
SW-620 colon = test system: SW-620 colon
A549 NSCLC = test system: A549 NSCLC
SK-OV-3 ovarian = test system: SK-OV-3 ovarian
M14 melanoma = test system: M14 melanoma
MCF7 breast = test system: MCF7 breast

Row | Structure (SMILES) | TGI (MALME-3M melanoma) | TGI (UACC-62 melanoma) | TGI (SK-MEL-5 melanoma) | TGI (ACHN renal) | TGI (UO-31 renal) | TGI (SW-620 colon) | TGI (A549 NSCLC) | TGI (SK-OV-3 ovarian) | TGI (M14 melanoma) | GI50 (MALME-3M melanoma) | GI50 (UACC-62 melanoma) | GI50 (SK-MEL-5 melanoma) | GI50 (ACHN renal) | GI50 (UO-31 renal) | GI50 (SW-620 colon) | GI50 (A549 NSCLC) | GI50 (SK-OV-3 ovarian) | GI50 (M14 melanoma) | GI50 (MCF7 breast) | TGI (MCF7 breast)
1 | COc1cc(C)c(O)c(C(=O)O)c1 | > 100 µM | > 100 µM | > 100 µM | > 100 µM | > 100 µM | > 100 µM | > 100 µM | > 100 µM | > 100 µM | – | – | – | – | – | – | – | – | – | – | –
2 | N.N.NCCCCCCN.O=C([O-])CC(=O)[O-].O=C([O-])CC(=O)[O-].[Pt+4].[Pt+4] | > 100 µM | > 100 µM | > 100 µM | > 100 µM | > 100 µM | > 58.7 µM | > 100 µM | > 100 µM | > 100 µM | > 100 µM | 10.5 µM | > 100 µM | 36.1 µM | > 100 µM | > 38 µM | > 100 µM | > 100 µM | > 86.7 µM | – | –
3 | O=C(CCc1cc(-c2ccccc2)nc(=S)[nH]1)Nc1ccccc1[N+](=O)[O-] | > 100 µM | > 100 µM | > 100 µM | > 100 µM | > 100 µM | > 100 µM | > 100 µM | > 100 µM | > 100 µM | – | – | – | – | – | – | – | – | – | – | –
4 | CCOc1ccccc1/C=N\N=C(\N)N/N=C/c1ccccc1OCC | – | > 100 µM | > 100 µM | > 100 µM | > 100 µM | > 100 µM | > 100 µM | > 100 µM | – | – | 0.914 µM | 1.63 µM | 3.82 µM | 2.97 µM | 2.46 µM | 4.25 µM | 2.93 µM | – | 1.01 µM | > 100 µM
5 | O=C(CCCSc1nc(-c2ccccc2)cc(-c2ccc(Cl)cc2)n1)NO | 12.1 µM | 3.89 µM | 5.45 µM | 4.38 µM | 2.1 µM | 13 µM | 12.4 µM | 12.4 µM | – | 2.7 µM | 1.45 µM | 2.26 µM | 0.399 µM | 0.352 µM | 1.66 µM | 2.31 µM | 3.12 µM | – | 2.29 µM | 12.4 µM
6 | Cc1cn2c(/C=N/Nc3ccccn3)c(-c3ccc(Cl)c([N+](=O)[O-])c3)nc2s1 | – | 46.3 µM | > 50 µM | 15.5 µM | > 50 µM | > 50 µM | 21.9 µM | 22.5 µM | 23 µM | – | 14.1 µM | 43.9 µM | 6.89 µM | 13.1 µM | 44.1 µM | 8.7 µM | 9.95 µM | 10.8 µM | 3.27 µM | > 50 µM
7 | Nc1cc(N)c2nc(-c3ccccc3)c(NCc3ccc(F)cc3)nc2c1 | – | 29.5 µM | 3.61 µM | 3.11 µM | > 100 µM | 9.52 µM | 34.9 µM | 26.4 µM | 55.9 µM | – | 15.4 µM | 1.88 µM | 1.71 µM | 3.81 µM | 2.21 µM | 17.6 µM | 12.9 µM | 23.7 µM | 2.99 µM | > 100 µM
8 | C=C1CCC2[C@@H](CCC3[C@]2(C)CCC[C@]3(C)C(=O)OC)C1CCO (some centres undefined) | 35.8 µM | 27.5 µM | 17.5 µM | 29.4 µM | 31.7 µM | 26.9 µM | 32.5 µM | 45.3 µM | 26.5 µM | – | – | – | – | – | – | – | – | – | – | –
9 | O=C(CN(/C=C/C(=O)C(F)(F)F)c1ccccc1)c1ccc(Cl)c(Cl)c1 | 32.1 µM | 21.3 µM | 26.3 µM | 27.9 µM | 24.3 µM | 30.1 µM | 29.8 µM | 40.1 µM | – | 12.8 µM | 9.43 µM | 13.2 µM | 14.7 µM | 11.4 µM | 14.6 µM | 13.4 µM | 21.1 µM | – | 5.2 µM | 55.3 µM
10 | C=CCC(OCCOCC)c1cc(OCCOCC)ccc1OC (centres undefined) | > 100 µM | > 100 µM | > 100 µM | > 100 µM | > 100 µM | > 100 µM | > 100 µM | > 100 µM | > 100 µM | – | – | – | – | – | – | – | – | – | – | –
11 | COC(=O)C1=C(C(=O)OC)SC(=C(N=Nc2ccccc2)c2ccccc2)S1 | > 100 µM | > 100 µM | > 100 µM | > 100 µM | > 100 µM | > 100 µM | > 100 µM | > 100 µM | > 100 µM | – | – | – | – | – | – | – | – | – | – | –
12 | CCN(CC)CC(C(=O)Nc1c(C)cccc1C)/C(C)=N\NC(=O)c1ccncc1 (centres undefined) | > 100 µM | – | > 100 µM | > 100 µM | > 100 µM | – | > 100 µM | > 100 µM | > 100 µM | – | – | – | – | – | – | – | – | – | – | –
13 | C/C=C/C=C/CCCCCCCCCCCCCC1(OC)C=CC(CC(=O)OC)OO1 (centres undefined) | 50.8 µM | 28 µM | 22.6 µM | 16.7 µM | 7.94 µM | 4.34 µM | 19.7 µM | 33.9 µM | 28.6 µM | – | – | – | 6 µM | – | 1.99 µM | 5.57 µM | – | – | – | –
14 | C=C1CCc2occ(C)c2C2C1C1=C(CC(C)C1=O)C1OC12C (centres undefined) | > 100 µM | > 100 µM | > 100 µM | > 100 µM | > 100 µM | > 100 µM | > 100 µM | > 100 µM | > 100 µM | – | – | – | – | – | – | – | – | – | – | –
15 | COC(=O)C1=C(O)c2cc3c(cc2[C@H](c2cc(OC)c(OC)c(OC)c2)C1C(=O)OC)OCO3 (some centres undefined) | 87.3 µM | 99.4 µM | > 100 µM | 58.1 µM | > 100 µM | > 100 µM | > 100 µM | > 100 µM | > 100 µM | – | – | – | – | – | – | – | – | – | – | –
16 | CCCC(Sc1ccccc1)P(=O)(c1ccccc1)c1ccccc1 (centres undefined) | – | 37 µM | 87.2 µM | 61.4 µM | > 100 µM | > 100 µM | > 100 µM | 50.7 µM | > 100 µM | – | – | – | – | – | – | – | – | – | – | –
17 | C[C@@H](NC1CCC[C@H]1O)c1ccccc1 (some centres undefined) | > 100 µM | > 100 µM | > 100 µM | > 100 µM | > 100 µM | > 100 µM | > 100 µM | > 100 µM | > 100 µM | – | – | – | – | – | – | – | – | – | – | –
18 | O=C1c2ccccc2CC1C1(O)C(=O)Nc2ccccc21 (centres undefined) | > 100 µM | > 100 µM | > 100 µM | > 100 µM | > 100 µM | > 100 µM | > 100 µM | > 100 µM | > 100 µM | – | – | – | – | – | – | – | – | – | – | –
